Results published in US9018172B2, “Modification of peptides via SNAr reactions of thiols with fluorinated aromatics” (Massachusetts Institute of Technology, priority 2012, dated 2015).

Columns and labels:
[1] = Proteolysis assay with trypsin or chymotrypsin, LC-MS; format: in vitro ADME; conditions: isolated enzyme several chymotrypsin trypsin, pH 8.1; after 10 minutes with protease (trypsin/chymotrypsin), 37° C.; read-out: intact peptide observed
Method: 100 μL of peptide (100 μM) in phosphate buffer (pH 8.1) was mixed and incubated with 40 μL of the protease solution (trypsin—70 μg/mL; chymotrypsin—50 μg/mL) at 37° C. Aliquots of 35 μL were quenched with 55 μL of 1% TFA solution in MeCN and subjected to LC-MS analysis at 10, 25 and 40 minutes respectively. Peptide concentrations at different time points were quantified by integration of the TIC trace relative to the starting peptide sample. Note, that in the case of experiments with unstapled peptide 7, <1% of the intact peptide was observed after 10 minutes.

[2] = system: HEK293T cells; assay: Confocal microscopy cell imaging of FITC-labeled peptide uptake; format: cell-based; conditions: 5 μM, 4 hours
Method: 293T HEK cells were cultured with DMEM with 10% FBS (v/v) in imaging dishes (70K cells/well) in 37° C., 5% CO2 incubator for two days until they are about 70% confluent. Appropriate amounts of peptides 7, 7a, 7b, 8a and 8b dissolved in autoclaved H2O were added to the cells to final concentrations of 5 μM. Peptide 9 was first dissolved in DMSO to make a 200 μM stock and then added to cells to a final concentration of 5 μM. The cells were incubated with the samples for 4 hours at 37° C. and 5% CO2. After incubation, cells were washed 3 times with DPBS and then fixed with 4% formaldehyde in DPBS for 10 minutes. They are then washed 3 times with HBSS and stained with 5 μg/mL wheat germ agglutinin-tetramethylrhodamine conjugate in HBSS for 20 minutes. The cells were subsequently washed with HBSS once and DPBS twice and stained with 5 μg/mL diamidino-2-phenylindole (DAPI) in DPBS for 30 minutes. They were washed 3 times with DPBS and covered in one drop of pri-Gold and cover slide. Images of peptide localization in cells were taken on PerkinElmer Ultraview Spinning Disk Confocal with 30% of its maximum laser power in 488 channel with 500 ms exposure time and 0.5 μm Z-stacking Image processing was done using Volocity software package (PerkinElmer).

[3] = Temperature-dependent melting from CD spectra at 222 nm; format: physicochemical; conditions: CD at 222 nm
Method: CD measurements were done with Aviv 202 spectrometer using 1 mm quartz cuvette. Peptide solutions were made by dissolving solid samples in 25% acetonitrile/water mixture, CD spectra of 3a and 3b were measured in acetonitrile, CD spectra of affibodies was collected in 10 mM phosphate buffer. Concentration of affibodies was estimated by UV absorbance measurements at 280 nm. Contribution of the perfluorinated staple in 6a on the absorbance value at 280 nm was taken into account (estimated molar extinction coefficient for [—S—C6F4—S-]˜5000 cm^−1M^−1 from UV measurements of solutions of 6 and 6a) in these measurements. Data processing included solvent background correction (subtraction) and adjustment for pathlength and concentration (MRE=[θ]λ=θobs×1/(10 lcn); θobs=measured ellipticity, θ=mean residual ellipticity in deg×cm^2×dmol^−1, 1=pathlength (cm); c=concentration of peptide (M); n=# of amino acids). α-helicities of the peptides were estimated using previously established methods.

Compound | remaining at 10 min [1] [%] | cellular uptake (confocal microscopy) [2] | temperature dependent melting properties [3]
CC[C@H](C)[C@H](NC(=O)CCNC(=S)Nc1ccc(-c2c3ccc(=O)cc-3oc3cc(O)ccc23)c(C(=O)O)c1)C(=O)N[C@H](C(=O)N[C@@H](Cc1ccccc1)C(=O)N[C@@H](CSCC(N)=O)C(=O)N[C@@H](CC(=O)O)C(=O)N[C@@H](CC(C)C)C(=O)N[C@@H](CC(C)C)C(=O)N[C@@H](CSCC(N)=O)C(=O)N[C@@H](Cc1ccc(O)cc1)C(=O)N[C@@H](Cc1ccc(O)cc1)C(=O)NCC(=O)N[C@@H](CCCCN)C(=O)N[C@@H](CCCCN)C(=O)N[C@@H](CCCCN)C(N)=O)[C@@H](C)O [Peptide 7] | < 1 | no fluorescent positive cells | –
Affibody 10a: HER-2 affibody with perfluoroaryl staple at Cys42, Cys46 on the C-terminal helix | – | – | not compromised
